Patent US20230010108
Like-named read-outs stand apart in the source and are kept apart here.

Settings: ester bond, 2 steps

COC(=O)[C@H](Cc1ccc2c(c1)NC(=O)CCCNC(=O)C(NC(=O)CCN1C(=O)C=CC1=O)C(NC(=O)CCN1C(=O)C=CC1=O)C(=O)NCCCC(=O)O2)NC(=O)OC(C)(C)C (stereo partly shown)
ring closure, isolated yield (from 4,4′-((2,3-bis(2-(2,5-dioxo-2,5-dihydro-1H-pyrrol-1-yl)acetamido)-succinyl)bis(azanediyl))dibutanoic acid + (S)-methyl 3-(3-amino-4-hydroxyphenyl)-2-(tert-butoxycarbonylamino)propanoate?, 18-membered ring): 68%

C[C@@H](C[C@H](Cc1ccc2c(c1)NC(=O)CCCNC(=O)[C@H](CCCCNC(=O)CCOCCOCCOCCC(=O)NCCOCCOCCC(=O)NCCOCCOCCC(=O)OC(C)(C)C)NC(=O)CCCNC(=O)[C@H](NC(=O)CCN1C(=O)C=CC1=O)[C@H](NC(=O)CCN1C(=O)C=CC1=O)C(=O)NCCCC(=O)O2)NC(=O)OC(C)(C)C)C(=O)OC(C)(C)C
ring closure, isolated yield (from C[C@@H](C[C@H](Cc1ccc(O)c(NC(=O)CCCNC(=O)[C@H](CCCCNC(=O)CCOCCOCCOCCC(=O)NCCOCCOCCC(=O)NCCOCCOCCC(=O)OC(C)(C)C)NC(=O)CCCNC(=O)[C@@H](NC(=O)CCN2C(=O)C=CC2=O)[C@@H](NC(=O)CCN2C(=O)C=CC2=O)C(=O)NCCCC(=O)O)c1)NC(=O)OC(C)(C)C)C(=O)OC(C)(C)C, 26-membered ring): 39%

CC(C)[C@@H]1NC(=O)[C@H](C)NC(=O)CCCNC(=O)[C@H](NC(=O)CN2C(=O)C=CC2=O)[C@H](NC(=O)CN2C(=O)C=CC2=O)C(=O)NCCCC(=O)Oc2ccc(C[C@@H](C[C@H](C)C(=O)OC(C)(C)C)NC(=O)OC(C)(C)C)cc2NC1=O
ring closure, isolated yield (from (2S,4R)-tert-butyl 5-(3-((S)-2-((S)-2-aminopropanamido)-3-methylbutanamido)-4-hydroxyphenyl)-4-((tert-butoxycarbonyl)amino)-2-methylpentanoate + 4,4′-(((2R,3S)-2,3-bis(2-(2,5-dioxo-2,5-dihydro-1H-pyrrol-1-yl)acetamido)succinyl)bis(azanediyl))-dibutanoic acid?, 24-membered ring): 62%

COCCOCCOCCOCCOCCOCCOCCOCCOCCOCC(=O)NCCCC[C@@H]1NC(=O)[C@@H](NC(=O)CCCN2C(=O)C=CC2=O)[C@@H](NC(=O)CCCN2C(=O)C=CC2=O)C(=O)N[C@@H](CCCCNC(=O)COCCOCCOCCOCCOCCOCCOCCOCCOCCOC)C(=O)NCCCC(=O)Nc2cc(C[C@@H](C[C@H](C)C(=O)OC(C)(C)C)NC(=O)OC(C)(C)C)ccc2OC(=O)CCCNC1=O
ring closure, isolated yield (from (7S,10R,11S,14S)-10,11-bis(4-(2,5-dioxo-2,5-dihydro-1H-pyrrol-1-yl)butanamido)-6,9,12,15-tetraoxo-7,14-bis(31-oxo-2,5,8,11,14,17,20,23,26,29-decaoxa-32-azahexatriacontan-36-yl)-5,8,13,16-tetraazaicosane-1,20-dioic acid + (2S,4R)-tert-butyl 5-(3-amino-4-hydroxyphenyl)-4-((tert-butoxycarbonyl)amino)-2-methylpentanoate?, 24-membered ring): 52%
